{"source": "paper PMC13061384", "about": "“Rapid behavioral screening in the planarian Dugesia japonica is a biologically relevant system to study neurotoxicity of organophosphorus pesticides mixtures” (Frontiers in Toxicology, 2026)", "origin": "cited, not measured here", "conditions": "ref PubChem", "data": [{"smiles": "CCOP(=S)(OCC)Oc1ccc([N+](=O)[O-])cc1", "note": "[PT, Parathion]", "values": [{"measurement": "logP", "value": 3.8}]}]}
